Test results as given in ChEMBL document CHEMBL1123931, “N10-substituted 5,8-dideazafolate inhibitors of glycinamide ribonucleotide transformylase” (J Med Chem, 1987).

The compounds below were run against T1, Trifunctional purine biosynthetic protein adenosine-3 (Mus musculus, UniProt Q64737) (assay: Inhibition of GAR transformylase isolated from murine lymphoma cell line L5178Y).
T1 sequence (Q64737 whole entry): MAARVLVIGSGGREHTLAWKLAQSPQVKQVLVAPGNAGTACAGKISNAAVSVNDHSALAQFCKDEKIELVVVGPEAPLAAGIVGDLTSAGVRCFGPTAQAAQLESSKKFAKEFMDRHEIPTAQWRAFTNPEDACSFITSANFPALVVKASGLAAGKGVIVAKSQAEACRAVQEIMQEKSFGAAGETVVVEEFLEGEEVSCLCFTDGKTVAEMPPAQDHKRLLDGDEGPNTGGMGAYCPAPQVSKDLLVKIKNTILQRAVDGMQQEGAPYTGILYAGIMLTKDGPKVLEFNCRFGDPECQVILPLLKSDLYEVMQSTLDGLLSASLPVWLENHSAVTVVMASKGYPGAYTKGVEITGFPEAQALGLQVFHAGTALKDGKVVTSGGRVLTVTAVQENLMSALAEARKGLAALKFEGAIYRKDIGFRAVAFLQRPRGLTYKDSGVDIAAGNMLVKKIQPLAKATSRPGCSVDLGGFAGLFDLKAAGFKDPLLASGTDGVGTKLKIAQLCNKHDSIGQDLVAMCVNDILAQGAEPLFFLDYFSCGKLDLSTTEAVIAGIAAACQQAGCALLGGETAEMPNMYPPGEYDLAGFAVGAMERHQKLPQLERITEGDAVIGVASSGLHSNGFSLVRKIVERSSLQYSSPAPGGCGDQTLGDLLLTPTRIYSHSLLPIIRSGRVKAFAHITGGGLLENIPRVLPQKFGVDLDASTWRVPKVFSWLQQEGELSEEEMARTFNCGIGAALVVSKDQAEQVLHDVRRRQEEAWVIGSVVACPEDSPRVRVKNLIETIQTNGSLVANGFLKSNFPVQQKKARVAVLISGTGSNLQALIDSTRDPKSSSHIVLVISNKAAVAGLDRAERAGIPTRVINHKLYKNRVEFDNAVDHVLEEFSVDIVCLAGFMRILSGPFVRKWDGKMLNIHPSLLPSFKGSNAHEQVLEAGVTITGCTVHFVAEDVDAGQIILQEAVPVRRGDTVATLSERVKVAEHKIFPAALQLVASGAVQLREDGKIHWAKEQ
Type: cell-free

Structure (SMILES)	Ki [µM]
CC(=O)N(Cc1ccc2nc(N)[nH]c(=O)c2c1)c1ccc(C(=O)NC(CCC(=O)O)C(=O)O)cc1 (configuration not stated)	1.3
Nc1nc2ccc(CN(CC(=O)O)c3ccc(C(=O)NC(CCC(=O)O)C(=O)O)cc3)cc2c(=O)[nH]1 (configuration not stated)	5
Nc1nc2ccc(CN(Cc3cccc(F)c3)c3ccc(C(=O)NC(CCC(=O)O)C(=O)O)cc3)cc2c(=O)[nH]1 (configuration not stated)	18
Nc1nc(O)c2cc(CN(CC(=O)c3ccccc3)c3ccc(C(=O)NC(CCC(=O)O)C(=O)O)cc3)ccc2n1 (configuration not stated)	3
Nc1nc2ccc(CN(Cc3c[nH]c(=O)[nH]c3=O)c3ccc(C(=O)NC(CCC(=O)O)C(=O)O)cc3)cc2c(=O)[nH]1 (configuration not stated)	7
N#CCCCN(Cc1ccc2nc(N)nc(O)c2c1)c1ccc(C(=O)NC(CCC(=O)O)C(=O)O)cc1 (configuration not stated)	11
Nc1nc2ccc(CN(CC3CC3)c3ccc(C(=O)NC(CCC(=O)O)C(=O)O)cc3)cc2c(=O)[nH]1 (configuration not stated)	8
CC(C)N(Cc1ccc2nc(N)nc(O)c2c1)c1ccc(C(=O)NC(CCC(=O)O)C(=O)O)cc1 (configuration not stated)	19
Nc1nc2ccc(CN(CCC(=O)O)c3ccc(C(=O)NC(CCC(=O)O)C(=O)O)cc3)cc2c(=O)[nH]1 (configuration not stated)	32
C#CCN(Cc1ccc2[nH]c(N)nc(=O)c2c1)c1ccc(C(=O)NC(CCC(=O)O)C(=O)O)cc1 (configuration not stated)	6
Nc1nc(O)c2cc(CNc3ccc(C(=O)NC(CCC(=O)O)C(=O)O)cc3)ccc2n1 (configuration not stated) [DIDEAZAFOLATE]	2

Each compound was assayed against T1, Trifunctional purine biosynthetic protein adenosine-3 (assay: Inhibition of GAR transformylase isolated from the murine lymphoma cell line L5178Y).
Type: cell-free

Structure (SMILES)	Ki [µM]
CCN(Cc1ccc2nc(N)nc(O)c2c1)c1ccc(C(=O)NC(CCC(=O)O)C(=O)O)cc1 (configuration not stated)	16
